Source: ChEMBL document CHEMBL5512692, “Colloidal Aggregation Confounds Cell-Based Covid-19 Antiviral Screens” (J Med Chem, 2024)
pEC50, pIC50: −log10 of the molar value. Activity calls are given as the source filed them. No cut-off for these calls is given here.

Key:
[1] = Aggregation property of compound in 50 mM KPi buffer at pH 7 assessed as critical aggregation concentration by DLS assay; format: physicochemical
[2] = Aggregation property of compound in DMEM media assessed as critical aggregation concentration by DLS assay; format: physicochemical
[3] = Inhibition of porcine heart MDH using oxaloacetic acid as substrate preincubated for 5 mins followed by substrate and […] addition and measured for 80 sec by absorbance based analysis; parameters: species or system Sus scrofa
Sus scrofa [4] = species on record: Sus scrofa; assay: (§1) Inhibition of porcine heart MDH using oxaloacetic acid as substrate assessed as enzyme recovery by measuring residual activity at approximately IC90 preincubated for 5 mins in presence of triton X-0.01% followed by substrate and NADPH addition and measured for 80 sec by absorbance based analysis relative to control; conditions: time 380.0 sec
Sus scrofa [5] = species on record: Sus scrofa; assay: as §1, with “10 mg/ml BSA” for “triton X-0.01%”, “enzyme” for “substrate and NADPH”, “after 5 mins” for “for 80 sec”; conditions: time 10.0 min
SARS-CoV-2 [6] = assay: Antiviral activity against SARS CoV-2 spike-pseudotyped lentivirus infected in human A549-hACE2-TMPRSS2 cells assessed as inhibition of viral entry incubated for 24 hrs in absence of BSA by luciferase reporter assay; format: functional, organism-based; conditions: Severe acute respiratory syndrome coronavirus 2, A549-hACE2-TMPRSS2, 24 h
[7] = Absorption property of compound in DMEM media at 100 to 200 uM at 500 to 700 nm by luciferase assay; format: physicochemical; conditions: dose 100-200 µM
SARS-CoV-2 [8] = assay: Antiviral activity against SARS-CoV-2; format: functional, organism-based; conditions: Severe acute respiratory syndrome coronavirus 2
SARS-CoV-2 [9] = assay: Antiviral activity against luciferase independent SARS CoV-2 spike-pseudotyped lentivirus infected in human A549-hACE2-TMPRSS2 cells assessed as inhibition of viral entry by measuring reduction in luciferase activity incubated for 24 hrs by luciferase reporter assay; format: functional, organism-based; conditions: Severe acute respiratory syndrome coronavirus 2
SARS-CoV-2 [10] = assay: Antiviral activity against luciferase independent SARS CoV-2 spike-pseudotyped lentivirus infected in human A549-hACE2-TMPRSS2 cells assessed as inhibition of viral entry measured after 24 hrs before centrifugation by luciferase reporter assay; format: functional, organism-based; conditions: Severe acute respiratory syndrome coronavirus 2, A549-hACE2-TMPRSS2
SARS-CoV-2 [11] = assay: Antiviral activity against SARS CoV-2 spike-pseudotyped lentivirus infected in human A549-hACE2-TMPRSS2 cells assessed as inhibition of viral entry preincubated with 10 mg/ml BSA for 5 mins followed by viral infection and further incubated for 24 hrs by luciferase reporter assay; format: functional, organism-based; conditions: Severe acute respiratory syndrome coronavirus 2, A549-hACE2-TMPRSS2
SARS-CoV-2 [12] = assay: Antiviral activity against luciferase independent SARS CoV-2 spike-pseudotyped lentivirus infected in human A549-hACE2-TMPRSS2 cells assessed as inhibition of viral entry at 31.6 to 63.3 uM compound spin-down for 1 hr followed by viral infection and measured after 24 hrs by luciferase reporter assay; format: functional, organism-based; conditions: Severe acute respiratory syndrome coronavirus 2, dose 31.6-63.3 µM, time 25.0 hrs
[13] = Cytotoxicity against human A549-hACE2-TMPRSS2 assessed as reduction in cell viability incubated for 24 hrs by MTT assay; format: toxicity, cell-based; conditions: a549-hace2-tmprss2, 24 h

Which results are given for `Cc1cc(O)c2c(=O)c3c(O)cc(O)c4c5c(O)cc(O)c6c(=O)c7c(O)cc(C)c8c1c2c(c34)c(c78)c65` [HYPERICIN]?
CAC [1]: 3.3 µM; CAC [2]: 3.7 µM; pIC50 [3]: 6.52; Activity (Sus scrofa [4]): 90%; Activity (Sus scrofa [5]): 99%; pEC50 (SARS-CoV-2 [6]): 4.07; Activity [7]: Not Active; pEC50 (SARS-CoV-2 [8]): 5.91

Which results are given for `C[C@]12CC[C@@H]3c4ccc(O)cc4C[C@@H](CCCCCCCCC[S+]([O-])CCCC(F)(F)C(F)(F)F)[C@H]3[C@@H]1CC[C@@H]2O` (stereo partly drawn) [FULVESTRANT]?
Activity (SARS-CoV-2 [9]): Active; pEC50 (SARS-CoV-2 [10]): 6.72

What does the source list for `CCOC(=O)c1c(CSc2ccccc2)n(C)c2cc(Br)c(O)c(CN(C)C)c12` [UMIFENOVIR]?
CAC [1]: 58 µM; CAC [2]: 28 µM; pIC50 [3]: 5.07; Activity (Sus scrofa [4]): 58%; Activity (Sus scrofa [5]): 43%; pEC50 (SARS-CoV-2 [6]): 6.59; pEC50 (SARS-CoV-2 [11]): 4.60; Activity [7]: Not Active; Activity (SARS-CoV-2 [9]): Active; pEC50 (SARS-CoV-2 [10]): 6.36

With `COc1c(O)cc2oc(-c3ccccc3)cc(=O)c2c1O` [OROXYLIN A] as the molecule, how does the pIC50 [3] read?
Its pIC50 is 4.14.

What about the Activity (Sus scrofa [4]) of the same molecule?
Its Activity is 42%.

What about the Activity (Sus scrofa [5]) of the same molecule?
Its Activity is 33%.

And the Activity [7]?
The Activity was “Not Active”.

What about the Activity (SARS-CoV-2 [12]) of the same molecule?
The Activity was “Active”.

And the pEC50 (SARS-CoV-2 [8])?
The pEC50 was 4.70.

Which CAC [1] does the source give for `O=c1cc(-c2ccc(O)c(O)c2)oc2cc(O)cc(O)c12` [LUTEOLIN] here?
Its CAC is 83 µM.

And the CAC [2]?
Its CAC is 28 µM.

And the pIC50 [3]?
Its pIC50 is 4.82.

And the Activity (Sus scrofa [4])?
Its Activity is 89%.

And the Activity (Sus scrofa [5])?
The Activity was 107%.

And the Activity [7]?
The Activity was “Not Active”.

And the pEC50 (SARS-CoV-2 [8])?
Its pEC50 is 5.00.

Which results are given for `Oc1ccc(-c2[o+]c3cc(O)cc(O)c3cc2O)cc1.[Cl-]` [PELARGONIDIN CHLORIDE]?
CAC [1]: 79 µM; CAC [2]: 56 µM; pIC50 [3]: 5.09; Activity (Sus scrofa [4]): 83%; Activity (Sus scrofa [5]): 130%; Activity [7]: Not Active; pEC50 (SARS-CoV-2 [8]): 4.30

What does the source list for `CC(C)C(=O)OCC(=O)[C@@]12O[C@H](C3CCCCC3)O[C@@H]1C[C@H]1[C@@H]3CCC4=CC(=O)C=C[C@]4(C)[C@H]3[C@@H](O)C[C@@]12C` [CICLESONIDE]?
CAC [1]: 8.1 µM; CAC [2]: 4.2 µM; pIC50 [3]: 5.00; Activity (Sus scrofa [4]): 66.1%; Activity (Sus scrofa [5]): 57%; Activity [7]: Not Active; pEC50 (SARS-CoV-2 [8]): 4.69

What does the source list for `O=c1cc(-c2ccc(O)c(-c3c(O)cc(O)c4c(=O)cc(-c5ccc(O)cc5)oc34)c2)oc2cc(O)cc(O)c12` [AMENTOFLAVONE]?
CAC [1]: 25 µM; CAC [2]: 100 µM; pIC50 [3]: 5.21; Activity (Sus scrofa [4]): 93%; Activity (Sus scrofa [5]): 78%

With `O=C(O[C@@H]1Cc2c(O)cc(O)cc2O[C@@H]1c1cc(O)c(O)c(O)c1)c1cc(O)c(O)c(O)c1` [EPIGALOCATECHIN GALLATE] as the molecule, how does the Activity (Sus scrofa [4]) read?
Its Activity is 63.3%.

And the Activity (Sus scrofa [5])?
The Activity was 53%.

And the pEC50 (SARS-CoV-2 [6])?
The pEC50 was 4.45.

And the Activity (SARS-CoV-2 [12])?
Its Activity is “Active”.

What about the pEC50 (SARS-CoV-2 [8]) of the same molecule?
The pEC50 was 5.27.

For `CC(C)=CCc1c(O)ccc(C(=O)/C=C/c2ccc(O)cc2)c1O` [ISOBAVACHALCONE], which CAC [1] is on record?
The CAC was 6.1 µM.

What about the CAC [2] of the same molecule?
The CAC was 63 µM.

And the pIC50 [3]?
The pIC50 was 4.44.

What about the Activity (Sus scrofa [4]) of the same molecule?
Its Activity is 109%.

And the Activity (Sus scrofa [5])?
The Activity was 108%.

What about the Activity [13] of the same molecule?
The Activity was “Toxic”.

What about the Activity [7] of the same molecule?
The Activity was “Not Active”.

Which results are given for `C=C[C@@](C)(/C=C/c1ccc(O)cc1)CCC=C(C)C` [BAKUCHIOL]?
CAC [1]: 6.2 µM; CAC [2]: 2.5 µM; pIC50 [3]: 4.92; Activity (Sus scrofa [4]): 111%; Activity (Sus scrofa [5]): 77%; pEC50 (SARS-CoV-2 [6]): 5.27; pEC50 (SARS-CoV-2 [11]): 4.29; Activity [7]: Not Active; Activity (SARS-CoV-2 [9]): Active

Which CAC [1] does the source give for `CC1(C)Cc2c(-c3ccccc3)c(-c3ccc(Cl)cc3)c(CC(=O)O)n2C1` [LICOFELONE] here?
Its CAC is 54 µM.

What about the CAC [2] of the same molecule?
The CAC was 5.5 µM.

What about the pIC50 [3] of the same molecule?
Its pIC50 is 4.64.

What about the Activity [13] of the same molecule?
Its Activity is “Toxic”.

And the Activity [7]?
Its Activity is “Not Active”.

With `CNC(=O)c1cc(Oc2ccc(NC(=O)Nc3ccc(Cl)c(C(F)(F)F)c3)cc2)ccn1` [SORAFENIB] as the molecule, how does the pEC50 (SARS-CoV-2 [6]) read?
Its pEC50 is 6.39.

And the pEC50 (SARS-CoV-2 [11])?
Its pEC50 is 4.68.

And the Activity (SARS-CoV-2 [9])?
The Activity was “Active”.

And the pEC50 (SARS-CoV-2 [10])?
The pEC50 was 6.57.

For `O=c1c(O)c(-c2ccc(O)c(O)c2)oc2cc(O)cc(O)c12` [QUERCETIN], which CAC [1] is on record?
Its CAC is 62 µM.

And the CAC [2]?
The CAC was 100 µM.

And the pIC50 [3]?
The pIC50 was 5.48.

What about the Activity (Sus scrofa [4]) of the same molecule?
Its Activity is 61%.

And the Activity (Sus scrofa [5])?
Its Activity is 108%.

What about the Activity [7] of the same molecule?
The Activity was “Not Active”.
